Tested on in one series: not given
Conditions: not given
The term melting point denotes the temperature, or range, at which the solid turns liquid. `CCN(c1ccc2c(c1)C(C)(C)CCC2(C)C)c1ccc(C(=O)O)cn1` [Example 1, 6-(ethyl(5,5,8,8-tetramethyl-5,6,7,8-tetrahydronaphthalen-2-yl)amino)nicotinic acid]: the melting point was in the range of 230 to 232 °C.
On the same count and under the same terms, under `CCN(c1ccc(C(=O)O)cc1)c1ccc2c(c1)C(C)(C)CCC2(C)C` [Example 2, 4-(Ethyl(5,5,8,8-tetramethyl-5,6,7,8-tetrahydronaphthalen-2-yl)amino)benzoic acid] stands 247.8 to 250.6 °C; under `CCN(c1ccc(C(=O)O)cc1)c1cc2c(cc1C)C(C)(C)CCC2(C)C` [Example 3, 4-(Ethyl(3,5,5,8,8-pentamethyl-5,6,7,8-tetrahydronaphthalen-2-yl)amino)benzoic acid], 252.4 to 256.8 °C.
Same read-out and setting: the result for `CCN(c1ncc(C(=O)O)cn1)c1cc2c(cc1C)C(C)(C)CCC2(C)C` [Example 6, 2-(Ethyl(3,5,5,8,8-pentamethyl-5,6,7,8-tetrahydronaphthalen-2-yl)amino)pyrimidine-5-carboxylic acid] reads 231.9 to 233.1 °C.
The same measure, in the same setting: under `CCN(c1ccc2c(c1)C(C)(C)CCC2(C)C)c1cnc(C(=O)O)cn1` [Example 7, 5-(Ethyl(5,5,8,8-tetramethyl-5,6,7,8-tetrahydronaphthalen-2-yl)amino)pyrazine-2-carboxylic acid] stands 213.1 to 214.4 °C; under `CCN(c1cnc(C(=O)O)cn1)c1cc2c(cc1C)C(C)(C)CCC2(C)C` [Example 8, 5-(Ethyl(3,5,5,8,8-pentamethyl-5,6,7,8-tetrahydronaphthalen-2-yl)amino)pyrazine-2-carboxylic acid], 203.6 to 205.1 °C.
Turning to `CCN(c1ccc(C(=O)O)c(F)c1)c1ccc2c(c1)C(C)(C)CCC2(C)C` [Example 9, 4-(Ethyl(5,5,8,8-tetramethyl-5,6,7,8-tetrahydronaphthalen-2-yl)amino)-2-fluorobenzoic acid], the melting point fell in the range of 252.4 to 256.8 °C.
Same read-out and setting: under `CCN(c1ccc(C(=O)O)c(F)c1)c1cc2c(cc1C)C(C)(C)CCC2(C)C` [Example 10, 4-(Ethyl(3,5,5,8,8-pentamethyl-5,6,7,8-tetrahydronaphthalen-2-yl)amino)-2-fluorobenzoic acid] stands 241.4 to 243.8 °C.

The target of a further series is hRXRβ (Homo sapiens, UniProt P28702). The settings on record: read-out: EC50 for the hRXRβ isoform; cited from earlier work.
Chain of hRXRβ (P28702 whole entry, canonical isoform): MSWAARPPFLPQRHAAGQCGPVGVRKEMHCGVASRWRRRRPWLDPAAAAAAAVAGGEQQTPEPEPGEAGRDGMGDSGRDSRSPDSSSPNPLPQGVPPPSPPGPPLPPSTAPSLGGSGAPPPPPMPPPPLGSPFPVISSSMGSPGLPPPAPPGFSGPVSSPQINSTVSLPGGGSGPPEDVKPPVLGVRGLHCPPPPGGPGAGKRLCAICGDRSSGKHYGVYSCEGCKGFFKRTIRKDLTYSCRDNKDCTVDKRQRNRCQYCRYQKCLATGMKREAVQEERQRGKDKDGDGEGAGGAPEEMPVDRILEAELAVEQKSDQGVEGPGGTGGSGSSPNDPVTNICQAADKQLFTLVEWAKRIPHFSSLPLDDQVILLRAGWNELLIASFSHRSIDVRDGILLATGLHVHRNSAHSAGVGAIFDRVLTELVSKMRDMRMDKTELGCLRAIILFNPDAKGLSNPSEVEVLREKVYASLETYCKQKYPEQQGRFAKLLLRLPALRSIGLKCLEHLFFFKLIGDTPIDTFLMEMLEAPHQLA
For orientation: EC50 means the concentration that produces a half-maximal response. With `Cc1cc2c(cc1-c1cc(/C=C/C(=O)O)ccc1O)C(C)(C)CCC2(C)C` [CD3254], the EC50 was approximately 10 nM.

Source of the values: patent US10238655B2, “Dihydroindene and tetrahydronaphthalene compounds” (ARIZONA BOARD OF REGENTS ON BEHALF OF ARIZONA STATE …, priority 2017, dated 2019).
